Calls of active or inactive are those of the source. The rule behind the calls is not given here.
Assay: non-covalent RecA intein splicing inhibitors, dose response, biochemical, cell-free, fluorescence, secondary screen (AID 449750)

| Compound | AC50 |
| --- | --- |
| Nc1cc(N)c(OCC(F)(F)F)cc1OCC(F)(F)F | 9.65 µM |
| O=C(CCl)Nc1c(C(=O)Nc2ccc3c(c2)OCCO3)oc2ccccc12 | 4.49 µM |
| c1cc2cn[nH]c2cc1NC1CCCCCC1 | 36.2 µM |
| CCOc1ccc(S(=O)(=O)Nc2cc(SCC(=O)O)c(O)c3ccccc23)cc1 | 2.81 µM |
| Oc1[nH]c(=S)sc1C=C1N=c2ccccc2=N1 | > 38 µM (inactive) |
| Cc1ccc(Sc2ncnc3onc(C)c23)cc1 | > 38 µM (inactive) |
| CC(=O)N(C1=C(N2CCOCC2)C(=O)c2ccccc2C1=O)c1ccc(C(=O)O)cc1 | 9.14 µM |
| CCCCn1[nH]c(-c2ccccc2)cc1=O | 8.57 µM |
| CC[n+]1ccc2cc(OC)c(OC)cc2c1Cc1ccc(OC)c(OC)c1 | > 38 µM (inactive) |
| N#CCCN(C(=O)CCl)c1cccc(Cl)c1 | 38.9 µM |
| CCOC(=O)c1c(NC(=O)CCl)sc(C(=O)N(CC)CC)c1C | 4.22 µM |
| CCOC(=O)c1oc2nc(CC(C)C)c3c(c2c1N)CCC3 | > 38 µM (inactive) |
| O=C1CCCC2=C1C1(O)C(=O)c3ccccc3C1(O)O2 (stereo not drawn) | 7.79 µM |
| Cc1cc2c(N)cccc2nn1 | > 38 µM (inactive) |
| Cc1cccc(C(=O)c2cnc3ccccc3c2-c2ccccc2)c1 | 14.4 µM |
| FC(F)(F)c1ccc(C2[C@H]3CN(Cc4cccnc4)[C@H](c4ccccc4)C34CC2(c2cccnc2)C4)cc1 (stereo partly drawn) | 5.51 µM |
| O=C(O)COc1ccc(/C=C2/SC(=S)N(Cc3ccccc3)C2=O)cc1 | 31.6 µM |
| CCc1[nH]nc2c1C(c1cccc(OC(=O)N3CCOCC3)c1)C(C#N)=C(N)O2 (stereo not drawn) | > 38 µM (inactive) |
| COC(=O)CSc1nc2sc3c(c2c(=O)n1C1CCCCC1)CCN(C)C3 | > 38 µM (inactive) |
| Cc1nn(Cc2ccccc2)c2c1C(c1ccncc1)C(C#N)=C(N)O2 (stereo not drawn) | > 38 µM (inactive) |
| Oc1[nH]c2ccc(Br)cc2c1N=NC(=S)N1CCOCC1 | > 38 µM (inactive) |
| CCN(CC)CCN1C(=O)c2cccc3cc(N)cc(c23)C1=O | 1.69 µM |

| Compound | AC50 |
| --- | --- |
| CC1=NN(c2ccccc2)C(=O)C1/C=C1\C(=O)NC(=O)N(c2ccc(C)c(C)c2)C1=O (stereo not drawn) | 26.1 µM |
| CCOC(=O)N1CCC(c2cc(=O)n(-c3ccccc3)[nH]2)CC1 | 6.18 µM |
| O=C(CCl)N1CCCC1c1ccc2c(c1)OCCO2 (stereo not drawn) | 4.86 µM |
| O=[N+]([O-])c1cccc(C=Nc2cccc3ccccc23)c1O | > 38 µM (inactive) |
| CC(C)[n+]1ccn(C2=C([O-])c3ccccc3C(=O)/C2=N\S(=O)(=O)c2ccccc2)c1 | 8.08 µM |
| Cc1[nH]nc2c1C(c1ccsc1C)C(C#N)=C(N)O2 (stereo not drawn) | > 38 µM (inactive) |
| CCOc1cc(/C=C2\C(=N)N3N=C(N4CCCCC4)SC3=NC2=O)ccc1OC(=O)c1ccco1 | > 38 µM (inactive) |
| Cc1nc2ccccc2c2c1C(=O)N(C)C2=O | > 38 µM (inactive) |
| O=C(NC1CCCC1)C(c1ccc(F)cc1)N(Cc1ccccc1Cl)C(=O)CCl (stereo not drawn) | 0.802 µM |
| CC1=NNC(=O)/C1=C\c1cn(-c2ccccc2)nc1-c1ccc(F)cc1 | 12 µM |
| CN1C(=O)C(Cc2ccc3c(c2)OCO3)C(=O)N(C)C1=O | > 38 µM (inactive) |
| Cc1ccc(C(C[N+](=O)[O-])c2c(C)[nH]n(-c3ccccc3)c2=O)cc1 (stereo not drawn) | 5.5 µM |
| Cc1nn(-c2cccc(Cl)c2)c2c1C(c1cccnc1)C(C#N)=C(N)O2 (stereo not drawn) | 34.6 µM |
| COc1ccc(OC)c(C(c2c(C)[nH][nH]c2=O)c2c(C)[nH][nH]c2=O)c1 | 13.5 µM |
| Cc1nc2ccccc2c2c1C(=O)N(Cc1cccnc1)C2=O | > 38 µM (inactive) |
| Cc1ccc(NC(=O)C(CC(C)C)NC(N)=O)cc1 (stereo not drawn) | > 38 µM (inactive) |
| CC1=NN(c2ccccc2)C(=O)/C1=C/c1cccc(C)c1 | 4.14 µM |
| Cc1ccc(-c2[nH]nc3c2C(C)C(C#N)=C(N)O3)cc1 (stereo not drawn) | > 38 µM (inactive) |
| COc1cccc(-c2cc(=O)[nH][nH]2)c1 | 13.9 µM |
| CCc1ccc(Nc2n[n+](-c3ccccc3)c(-c3c(Cl)cccc3Cl)s2)cc1 | 8.26 µM |
| CCn1c2ccccc2c2cc(C3C(C#N)=C(N)Oc4n[nH]c(COC)c43)ccc21 (stereo not drawn) | 8.48 µM |
| Fc1ccc(Nc2nc(NCc3ccco3)c3ccccc3n2)cc1 | 7.39 µM |

| Compound | AC50 |
| --- | --- |
| O=C(CCl)Nc1ccc(N2CCCCCC2)cc1 | 6.59 µM |
| CN1CCN(C2=C(Cl)C(=O)C(c3cnc(N4CCCCC4)s3)=C(Cl)C2=O)CC1 | 3.1 µM |
| O=C(CNC(=O)c1ccccc1)N/N=C/c1ccc([N+](=O)[O-])o1 | > 38 µM (inactive) |
| Cc1ccc(NC(=O)CSc2ncnc3ccccc23)cc1S(=O)(=O)N1CCCCCC1 | 30.2 µM |
| CCOC(=O)c1nn(-c2ccc(C)cc2)c(=O)c2c(N)scc12 | > 38 µM (inactive) |
| CC(=O)c1cccc(-c2ccc3c(=O)[nH]c(Nc4ccccc4)cc3c2)c1 | 6.06 µM |
| CC1CCCN(C(=O)COc2ccc(NC(=O)c3cccs3)cc2)C1 (stereo not drawn) | > 38 µM (inactive) |
| COc1ccccc1N1C(=O)Cc2ccccc2C1=O | > 38 µM (inactive) |
| COc1ccc(C2CC(c3cccs3)=NN2C(=O)CCl)cc1OC (stereo not drawn) | 3.39 µM |
| CCc1ccc(S(=O)(=O)Nc2cc(SCC(=O)O)c(O)c3ccccc23)cc1 | 3.06 µM |
| Nc1ccc2nc[nH]c2c1 | 10.6 µM |
| Cc1cc(C)c(S(=O)(=O)/N=C2\C=C(Nc3ccc(C(=O)O)cc3)C(=O)c3ccccc32)c(C)c1 | 0.669 µM |
| CCCCCn1c(NC(=O)c2ccco2)c(S(=O)(=O)c2ccc(C)cc2)c2nc3ccccc3nc21 | > 38 µM (inactive) |
| COc1ccc(OCc2cc(C(=O)NC3CCOC(C)(C)C3)no2)c2ccccc12 (stereo not drawn) | 26 µM |
| COc1cccc(NC(=O)CSc2c3c(nc4ccccc24)CCCC3)c1 | 39.5 µM |
| O=C(Oc1ccc(N2C(=O)CCC2=O)cc1)c1ccco1 | 0.433 µM |
| FC(F)(F)c1ccc2c(c1)N(CCCN1CCN(CCCl)CC1)c1ccccc1S2 | 2.54 µM |
| Cc1c(C#N)c(NC(=O)CCl)n(Cc2ccc(F)cc2)c1C | 3.69 µM |
| Cc1cccc(C)c1NC(=O)c1nc(S(=O)(=O)Cc2ccccc2)ncc1Cl | > 38 µM (inactive) |
| Cc1[nH]nc2c1C1(CCC3(CC1)OCCO3)C(C#N)=C(N)O2 | > 38 µM (inactive) |
| Cc1ccc(C2C(C#N)=C(N)Oc3n[nH]c(-c4cccs4)c32)s1 (stereo not drawn) | 3.32 µM |
| Cc1ccc(NC2=C(NCCO)C(=O)c3ccccc3C2=O)cc1 | 20.3 µM |

| Compound | AC50 |
| --- | --- |
| COc1ccc(N2C(=O)CC(N(CCc3ccccc3)C(=O)/C=C/C(=O)O)C2=O)cc1 (stereo not drawn) | > 38 µM (inactive) |
| CC(=O)Nc1ccc(S(=O)(=O)NC2=C(N3CCN(c4ccc(F)cc4)CC3)C(=O)c3ccccc3C2=O)cc1 | 26.7 µM |
| CC(=O)c1cc(O)c2ccccc2c1O | 13.3 µM |
| COCc1[nH]nc2c1C(c1ccsc1)C(C#N)=C(N)O2 (stereo not drawn) | 35.3 µM |
| CC1=C(CC(=O)c2ccc(Cl)cc2)C(=O)c2ccccc2C1=O | 16.3 µM |
| Cc1cccc(Nc2nc(NCc3ccco3)c3ccccc3n2)c1 | 8.01 µM |
| Cc1[nH]n(-c2ccccc2)c(=O)c1C(c1ccc(O)c([N+](=O)[O-])c1)c1c(C)[nH]n(-c2ccccc2)c1=O | 2.77 µM |
| O=C(CCl)Nc1ccccc1C(=O)Nc1ccc2c(c1)OCO2 | 10.5 µM |
| Nc1ccc(N(CCO)CCO)cc1 | > 38 µM (inactive) |
| O=C1C(Cl)=C(N2CCCCC2)C(=O)C(Cl)=C1c1cnc(N2CCCCC2)s1 | > 38 µM (inactive) |
| CCCc1nn(C)c2c1C(c1cccnc1)C(C#N)=C(N)O2 (stereo not drawn) | > 38 µM (inactive) |
| CC(C)CC(NC(=O)CCl)c1ccccc1 (stereo not drawn) | 5.47 µM |
| COc1ccc(CC2=CC(=O)c3ccccc3C2=O)cc1 | 6.95 µM |
| CC(=O)c1cccc(NC(=O)CSc2ncc(C(=O)Nc3ccccc3)c(=O)n2C)c1 | > 12 µM (inactive) |
| CCCn1c(=O)[nH]c(=O)c2c1nc(-c1ccc(OC(F)F)c(OC)c1)n2CCOC | > 38 µM (inactive) |
| Cc1ccc2c(c1)c1c3n2CCN(C(=O)CCl)C3CCC1 (stereo not drawn) | 3.29 µM |
| Cc1[nH][nH]c(=O)c1C(c1ccc(-c2cccc(Cl)c2)o1)c1c(C)[nH][nH]c1=O | > 38 µM (inactive) |
| O=C(CCl)Nc1ccc(-c2ccccc2)cc1 | 5.56 µM |
| COc1cccc(N2CC(C(=O)Nc3nnc(SCC(=O)c4ccccc4)s3)CC2=O)c1 (stereo not drawn) | > 38 µM (inactive) |
| CCCCCCCCOC(=O)c1c(CSC(=N)N)n(C)c2cc(Br)c(OC(C)=O)cc12 | 14.5 µM |
| Cc1nc2ccccc2c2c1C(=O)N(c1cccc(C(=O)O)c1)C2=O | > 38 µM (inactive) |
| Nc1ccc2nc(N3CCOCC3)sc2c1 | > 38 µM (inactive) |

| Compound | AC50 |
| --- | --- |
| Cc1ccc2c(c1)-c1c(ssc1=S)C(C)(C)N2C(=O)CSC1=NCCS1 | 32.5 µM |
| N[C@@H]1CCCC[C@H]1N.O=C(O)C(=O)O.[Pt] | > 38 µM (inactive) |
| O=C(C1=C(c2ccccc2)C(=O)c2ccccc2C1=O)c1ccccc1 | 3.45 µM |
| COc1ccc(OC)c(N2C(=O)C(Cl)=C(N3CCCCC3)C2=O)c1 | > 38 µM (inactive) |
| COc1ccc(N/C=C2\CCc3ccccc3C2=O)cc1 | > 38 µM (inactive) |
| Cn1cnc([N+](=O)[O-])c1S(=O)(=O)c1cccc(Cl)c1 | 30 µM |
| Cc1cccc(Cn2nnc3c2C(=O)c2ccccc2C3=O)c1 | 28.7 µM |
| COc1cc(C2C(C#N)=C(N)Oc3n[nH]c(C)c32)ccc1OC(=O)c1ccccc1 (stereo not drawn) | > 38 µM (inactive) |
| Cc1ccc(NC2=C(Cl)C(=O)OC2OC(=O)c2ccco2)cc1C (stereo not drawn) | > 38 µM (inactive) |
| Cc1cc(-c2[nH]nc3c2C(c2ccc(Cl)cc2)C(C#N)=C(N)O3)c(C)s1 (stereo not drawn) | 15.2 µM |
| CC(=O)Oc1cc2c(cc1Cl)C1(CC(c3ccccc3Cl)O2)CC(C)(C)NC(=S)N1 (stereo not drawn) | 23.8 µM |
| Cc1ccccc1C(CC(=O)c1cccs1)C(C#N)C#N (stereo not drawn) | 6.53 µM |
| CC(C)c1[nH]nc2c1C(c1ccco1)C(C#N)=C(N)O2 (stereo not drawn) | > 38 µM (inactive) |
| Brc1ccc(Cn2c(-c3ccc(Br)o3)nc3ccccc32)o1 | 23.2 µM |
| CC(C)(C)OC(=O)NCCc1nnc(S(=O)(=O)Cc2ccc(Cl)cc2Cl)o1 | > 38 µM (inactive) |
| CC(=O)n1cc(N(C(=O)CCl)c2ccccc2)c2ccccc21 | 3.56 µM |
| CCCc1[nH][nH]c(=O)c1C(c1ccc(Br)cc1)C(C#N)C#N (stereo not drawn) | 32.2 µM |
| COC(=O)[C@@H]1[C@@H](C(=O)OC)C2(c3ccccc3-c3ccccc32)N(c2ccc(Cl)cc2)N1C#N | 34.3 µM |
| CCCc1[nH]nc2c1C(c1cccc(OC)c1)C(C#N)=C(N)O2 (stereo not drawn) | > 38 µM (inactive) |
| CC(=O)Nc1ccc(OC(=O)c2ccco2)cc1 | > 38 µM (inactive) |
